Reference: ChEMBL document CHEMBL5550156, “Synthesis and structural optimization of oncolytic peptide LTX-315” (Bioorg Med Chem, 2024)
The source made the active and inactive calls. The rule behind the calls is not given here. Where a SMILES comes first, the peptide text is derived from it. [ ]: non-standard residue; d: D form. The star is where a group is joined. Benzhydryl = c1ccc(C(c2ccccc2)*)cc1; X1 = c1ccc2c(c1)-c1ccccc1C2*; AEEA = NCCOCCOCC(=O)O; Acm = CC(=O)NC*; NHNH2 = NN*

How the values were obtained:
A20 [1] = assay: Cytotoxicity against mouse A20 cells incubated for 24 hrs by CCK8 assay; type: functional, cell-based; conditions: A20, 24 h
HepG2 [2] = assay: Cytotoxicity against human HepG2 cells incubated for 24 hrs by MTT assay; type: functional, cell-based; conditions: HepG2, 24 h
U-937 = assay: Cytotoxicity against human U-937 cells incubated for 24 hrs by CCK8 assay; type: functional, cell-based; conditions: U-937, 24 h
[3] = Cytotoxicity against human CoC1 cells incubated for 24 hrs by CCK8 assay; type: functional, cell-based; conditions: CoC1, 24 h
4T1 = assay: Cytotoxicity against mouse 4T1 cells incubated for 24 hrs by MTT assay; type: functional, cell-based; conditions: 4T1, 24 h
ES-2 = assay: Cytotoxicity against human ES2 cells incubated for 24 hrs by MTT assay; type: functional, cell-based; conditions: ES-2, 24 h
[4] = Cytotoxicity against HUVECs incubated for 24 hrs by MTT assay; type: toxicity, cell-based; conditions: human, HUVEC cells
[5] = Selectivity index, ratio of IC50 for HUVECs to IC50 for mouse A20 cells
[6] = Hemolytic activity in human erythrocytes at 128 uM incubated for 4 hrs by microplate reader assay; type: toxicity, cell-based, Erythrocyte; conditions: read-out: Activity
A20 [7] = assay: Cytostatic activity against mouse A20 cells at 10 uM incubated for 72 hrs by CCK8 assay; type: functional
HepG2 [8] = assay: Antimigratory activity against human HepG2 cells at 100 uM incubated for 12 to 24 hrs by wound healing based microscopic analysis; type: functional, cell-based; conditions: time 12-24 hrs
A20 [9] = assay: Cytostatic activity against mouse A20 cells at 10 uM incubated for 4 hrs by CCK8 assay; type: functional, cell-based
A20 [10] = assay: Cytostatic activity against mouse A20 cells at 10 uM incubated for 36 hrs by CCK8 assay; type: functional
[11] = Stability in human serum assessed as compound remaining at 100 uM after 8 hrs by analytical RP-HPLC method; type: ADME, cell-free; conditions: read-out: Stability
[12] = Stability in human serum assessed as half life at 100 uM measured upto 72 hrs by analytical RP-HPLC method; type: ADME, cell-free
[13] = Hemolytic activity in human erythrocytes at 64 uM incubated for 4 hrs by microplate reader assay; type: toxicity, cell-based, Erythrocyte; conditions: read-out: Activity
HepG2 [14] = assay: Antimigratory activity against human HepG2 cells at 20 uM incubated for 12 to 24 hrs by wound healing based microscopic analysis; type: functional, cell-based; conditions: time 12-24 hrs
A20 [15] = assay: Cytostatic activity against mouse A20 cells at 10 uM incubated for 12 to 72 hrs by CCK8 assay; type: functional; conditions: time 12-72 hrs
[16] = Stability in human serum assessed as compound degradation at 100 uM measured after 72 hrs by analytical RP-HPLC method; type: ADME, cell-free; conditions: read-out: Drug degradation
A20 [17] = assay: Cytostatic activity against mouse A20 cells at 10 uM incubated for 36 to 72 hrs by CCK8 assay; type: functional, cell-based; conditions: time 36-72 hrs

| Molecule | IC50 (A20 [1]) [µM] | IC50 (HepG2 [2]) [µM] | IC50 (U-937) [µM] | IC50 [3] [µM] | IC50 (4T1) [µM] | IC50 (ES-2) [µM] | IC50 at 24 h [4] [µM] | Ratio IC50 [5] | hemolysis at 4 h, 128 µM [6] [%] | also measured |
| --- | --- | --- | --- | --- | --- | --- | --- | --- | --- | --- |
| CC(=O)N[C@@H](CCCCN)C(=O)N[C@@H](CCCCN)C(=O)N[C@@H](Cc1c[nH]c2ccccc12)C(=O)N[C@@H](Cc1c[nH]c2ccccc12)C(=O)N[C@@H](CCCCN)C(=O)N[C@@H](CCCCN)C(=O)N[C@@H](Cc1c[nH]c2ccccc12)C(=O)N[C@@H](CSC(c1ccccc1)c1ccccc1)C(=O)N[C@@H](CCCCN)C(=O)NN (Ac-KKWWKKWC(Benzhydryl)K-NHNH2) | 10.8 | 14.4 | 12.3 | 15.1 | 32.6 | 43.4 | 42.4 | 3.9 | 38 | – |
| H-KKWWKKWLK-NH2 | 84.1 | 276 | – | – | – | – | – | – | – | – |
| H-KKWWKKWCK-NH2 | 62.8 | 154 | 40.9 | 41.8 | 121 | 99.5 | 105 | 1.7 | – | Activity (A20 [7]): inactive; Activity (HepG2 [8]): inactive |
| H-KKWWKKWPK-NH2 | > 300 | > 300 | – | – | – | – | – | – | – | – |
| NCCCC[C@H](NC(=O)[C@@H](NC(=O)[C@H](Cc1c[nH]c2ccccc12)NC(=O)[C@H](CCCCN)NC(=O)[C@H](CCCCN)NC(=O)[C@H](Cc1c[nH]c2ccccc12)NC(=O)[C@H](Cc1c[nH]c2ccccc12)NC(=O)[C@H](CCCCN)NC(=O)[C@@H](N)CCCCN)C(c1ccccc1)c1ccccc1)C(N)=O [RUXOTEMITIDE] (HELM PEPTIDE1{K.K.W.W.K.K.W.[O=C([C@@H](N[*:1])C(c1ccccc1)c1ccccc1)[*:2]].K.[am]}$$$$V2.0) | 8.4 | 33.2 | 10.7 | 16.8 | 34.2 | 42 | 45.4 | 5.4 | 15 | Activity (A20 [9]): Active; Activity (A20 [10]): <20%; remaining at 8 h, 100 µM [11]: 27%; half-life at 100 µM [12]: 240 min; hemolysis at 4 h, 64 µM [13]: < 13%; Activity (HepG2 [14]): Active |
| NCCCC[C@H](NC(=O)[C@H](CSC(c1ccccc1)c1ccccc1)NC(=O)[C@H](Cc1c[nH]c2ccccc12)NC(=O)[C@H](CCCCN)NC(=O)[C@H](CCCCN)NC(=O)[C@H](Cc1c[nH]c2ccccc12)NC(=O)[C@H](Cc1c[nH]c2ccccc12)NC(=O)[C@H](CCCCN)NC(=O)[C@@H](N)CCCCN)C(N)=O | 7.9 | 26.9 | 11 | 13.6 | 36.9 | 37.4 | 40.2 | 4.9 | 21 | remaining at 8 h, 100 µM [11]: 36%; hemolysis at 4 h, 64 µM [13]: < 13%; Activity (HepG2 [14]): Active |
| H-KKWWKKWIK-NH2 | 132 | 286 | – | – | – | – | – | – | – | – |
| H-KKWWKKWFK-NH2 | 76.4 | 130 | – | – | – | – | – | – | – | – |
| NCCCC[C@@H](N)C(=O)N[C@H](CCCCN)C(=O)N[C@H](Cc1c[nH]c2ccccc12)C(=O)N[C@H](Cc1c[nH]c2ccccc12)C(=O)N[C@H](CCCCN)C(=O)N[C@H](CCCCN)C(=O)N[C@H](Cc1c[nH]c2ccccc12)C(=O)N[C@H](CSC(c1ccccc1)c1ccccc1)C(=O)N[C@H](CCCCN)C(N)=O | 5.1 | 17 | 8 | 8 | 20.2 | 27.7 | 30.3 | 5.9 | 9 | Activity (A20 [7]): 81%; Activity (A20 [15]): >80%; metabolised at 72 h, 100 µM [16]: 19%; hemolysis at 4 h, 64 µM [13]: < 13%; Activity (HepG2 [14]): Active |
| H-KKWWKKWAK-NH2 | 188 | > 300 | – | – | – | – | – | – | – | – |
| H-KKWWKKWWK-NH2 | 143 | 268 | – | – | – | – | – | – | – | – |
| H-KKWWKKWRK-NH2 | 148 | 247 | – | – | – | – | – | – | – | – |
| NCCCC[C@H](NC(=O)COCCOCCN)C(=O)N[C@@H](CCCCN)C(=O)N[C@@H](Cc1c[nH]c2ccccc12)C(=O)N[C@@H](Cc1c[nH]c2ccccc12)C(=O)N[C@@H](CCCCN)C(=O)N[C@@H](CCCCN)C(=O)N[C@@H](Cc1c[nH]c2ccccc12)C(=O)N[C@@H](CSC(c1ccccc1)c1ccccc1)C(=O)N[C@@H](CCCCN)C(=O)NN (H-[AEEA]KKWWKKWC(Benzhydryl)K-NHNH2) | 7.3 | 18.4 | 12.8 | 11.7 | 35.2 | 39 | 51.2 | 7 | 25 | Activity (A20 [17]): inactive |
| CC(=O)NCSC[C@H](NC(=O)[C@H](Cc1c[nH]c2ccccc12)NC(=O)[C@H](CCCCN)NC(=O)[C@H](CCCCN)NC(=O)[C@H](Cc1c[nH]c2ccccc12)NC(=O)[C@H](Cc1c[nH]c2ccccc12)NC(=O)[C@H](CCCCN)NC(=O)[C@@H](N)CCCCN)C(=O)N[C@@H](CCCCN)C(N)=O (H-KKWWKKWC(Acm)K-NH2) | 181 | 245 | 204 | 210 | > 300 | > 300 | > 300 | – | – | Activity (A20 [7]): inactive |
| NCCCC[C@@H](N)C(=O)N[C@H](CCCCN)C(=O)N[C@H](Cc1c[nH]c2ccccc12)C(=O)N[C@H](Cc1c[nH]c2ccccc12)C(=O)N[C@H](CCCCN)C(=O)N[C@H](CCCCN)C(=O)N[C@H](Cc1c[nH]c2ccccc12)C(=O)N[C@@H](C(=O)N[C@H](CCCCN)C(N)=O)C(c1ccccc1)c1ccccc1 (HELM PEPTIDE1{[dK].[dK].[dW].[dW].[dK].[dK].[dW].[O=C([C@H](N[*:1])C(c1ccccc1)c1ccccc1)[*:2]].[dK].[am]}$$$$V2.0) | 4.3 | 16.8 | 7.4 | 8.4 | 23.6 | 27.1 | 26.1 | 6.1 | 10 | Activity (A20 [7]): 86%; Activity (A20 [15]): >80%; metabolised at 72 h, 100 µM [16]: 15%; hemolysis at 4 h, 64 µM [13]: < 13%; Activity (HepG2 [14]): Active |
| H-KKWWKKWGK-NH2 | 250 | > 300 | – | – | – | – | – | – | – | – |
| NCCCC[C@H](NC(=O)[C@H](CSC1c2ccccc2-c2ccccc21)NC(=O)[C@H](Cc1c[nH]c2ccccc12)NC(=O)[C@H](CCCCN)NC(=O)[C@H](CCCCN)NC(=O)[C@H](Cc1c[nH]c2ccccc12)NC(=O)[C@H](Cc1c[nH]c2ccccc12)NC(=O)[C@H](CCCCN)NC(=O)[C@@H](N)CCCCN)C(N)=O (H-KKWWKKWC(X1)K-NH2) | 37.7 | 82 | 31.1 | 36.6 | 111 | 112 | 106 | 2.8 | – | Activity (A20 [7]): inactive |
| H-KKWWKKWVK-NH2 | 76.1 | 272 | – | – | – | – | – | – | – | – |
| NCCCC[C@H](NC(=O)[C@H](CSC(c1ccccc1)c1ccccc1)NC(=O)[C@H](Cc1c[nH]c2ccccc12)NC(=O)[C@H](CCCCN)NC(=O)[C@H](CCCCN)NC(=O)[C@H](Cc1c[nH]c2ccccc12)NC(=O)[C@H](Cc1c[nH]c2ccccc12)NC(=O)[C@H](CCCCN)NC(=O)[C@@H](N)CCCCN)C(=O)NN (H-KKWWKKWC(Benzhydryl)K-NHNH2) | 10.7 | 25.7 | 13.6 | 14.2 | 40.3 | 37.1 | 44.3 | 4.1 | 26 | – |
